Data reported in PMC9616412, “Nebulized fusion inhibitory peptide protects cynomolgus macaques from measles virus infection” (Nature Communications, 2022).
Values joined by “and” are separate entries in the source; they are usually repeats but may differ in a detail not shown here. Equal values may be shown once.

Experiments:
[1] = ELISA of anti-HRC4 antibodies (IgG, IgA, IgM) in serum; format: in vivo, cynomolgus macaques; conditions: for anti-HRC4 antibodies (IgG, IgA and IgM), ELISA, D28 minus day 0: serum 1:20, rep1-rep3
Protocol: (§1) Briefly, HRC4 was coated in carbonate buffer pH 9.2 overnight (1 μg /well). […] Rabbit anti-HRC4 Ab followed with anti-rabbit Ab coupled to HRP was used as a positive control. Evaluation of total IgE in the serum was performed using the monkey IgE kit (Ozyme) following the manufacturer’s recommendation.

[2] = ELISA of HRC4-specific IgE in serum; format: in vivo, cynomolgus macaques; conditions: up to 4 weeks after nebulization
Protocol: as §1

[3] = system: MeV IC323-eGFP; test: Class-unswitched and switched memory B cells by flow cytometry; conditions: HRC4-treated animals P1 and P3
Protocol: (§3) Whole blood was collected on EDTA, then transferred into BD vacutainer CPT tubes (after removal of anticoagulant solution from CPT tubes) and spun at 2500 g for 20 min. The PBMCs were collected and one-tenth were used to isolate RNA. […] Cells were acquired on a MACSQuant®10 flow cytometer (Miltenyi) and analyzed by FlowJo10.8 (Becton Dickinson) and Kaluza 2.1 (Beckman Coulter).

[4] = system: MeV; test: Plaque reduction assay on Vero-hSLAM cells; conditions: fusion inhibition and plaque reduction in vitro before and after nebulization with mesh nebulizer
[5] = Lung histopathology (HE, HES; eosinophil infiltration); format: in vivo, cynomolgus macaques; conditions: for Lung eosinophil infiltration: HES staining
Protocol: Lung tissue samples were collected at necropsy and fixed by immersion in 10% neutral buffered formalin (Sigma) for a minimum of 14 days. The tissue samples were trimmed, processed and embedded in paraffin. 4 to 5 µm-thick sections were cut. For histopathology evaluation, slides were routinely stained with hematoxylin-eosin (HE) or with hematoxylin-eosin-saffron (HES). For the study of the pulmonary infiltration by eosinophils, the histopathologic evaluation was performed by a board-certified veterinary pathologist.
For hematoxylin-eosin staining, formalin-fixed tissues were processed and embedded in paraffin and tissue sections were then deparaffinized, rehydrated, rinsed, and placed in PBS before harrys hematoxylin staining (Diapath, diluted 1/3), washed with PBS and stained with eosin 1% (Sigma-Aldrich). Slide were washed with water dehydrated and mounted with DPX mounting medium (Sigma-Aldrich). For the study of eosinophils infiltration, slides were stained in addition with saffron and analysed by a board-certified veterinary pathologist.

[6] = system: MeV IC323-eGFP; test: ELISA of total MeV-specific immunoglobulin in serum; conditions: HRC4-treated animals P1 and P3
Protocol: Sera of MeV-infected NHPs were tested for the presence of anti-MeV antibodies by ELISA. Briefly, MeV nucleoprotein, produced as described previously[71] was coated onto 96-well ELISA plates overnight (1 μg /well). Plates were blocked using a mix of PBS 1X-Milk 5% for 30 min at room temperature. Serial dilutions (1:50 and then 1:3 serial dilutions until 1:2952450) were done in PBS 1X-Tween 0.05%-Milk and incubated 2 h at RT. […] Optical density was measured at 450 and 620 nm using an ELISA reader (Thermo Fisher) and the absorbance difference between 450 nm and 650 nm was determined and corrected for blank readings. The serum sample was considered positive when its value was higher than three times the average value obtained with the negative sera of the same dilution and the results were expressed as reciprocal value of the last serum dilution giving the measurable values.

[7] = system: MeV IC323-eGFP; test: MeV infection of NHP: clinical signs and fluorescent rash
Protocol: Blood samples for hematology analyses were collected at days −1, 0, 1, 2, 3, 6, 9, 13, 16 and 28. Blood samples for flow cytometry analyses were collected at days −1, 3, 6, 9, 13, 16 and 28. Throat swabs were collected at days 0, 1, 2, 3, 6, 9, 13, 16 and 28, using cotton swabs. Oxygen saturation and heartbeat were monitored by a Radical-7® Pulse CO-Oximeter (Masimo) and breathing was monitored by a Dräger Primus anesthesia machine. Hematological parameters were measured on a Procyte DX (IDEXX) and biochemical parameters were evaluated on a Konelab 30 (Thermo Fisher). Development of fluorescent rash was followed using a FastGene Blue/Green LED Flashlight (Nippon genetics).

[8] = Flow cytometry of major PBMC populations in blood; format: in vivo, cynomolgus macaques; conditions: compared to values before the nebulization
[9] = system: MeV IC323; test: Lethal intranasal MeV infection of CD150xIFNα/βR KO mice, survival; conditions: p < 0.0001, Mantel-Cox test
Protocol: CD150xIFNα/βR KO mice[35],[36], generated by crossing hSLAM transgenic mice into an IFN Receptor α/β deficient background, were bred at the institute’s animal facility (PBES, ENS-Lyon, France) as heterozygotes for hSLAM transgenes. Three to 4 weeks old mice (males and females) were infected by intranasal route (i.n.) with 10 µl of MeV IC323 in both nares (10^4 PFU/mouse) under isoflurane anesthesia. CD150xIFNα/βR KO mice were given i.n. either 0.1 or 1 mg/kg of HRC4 peptide 24 h or 6 h before the infection. Control mice received the same number of administrations of the diluent. All animals were observed and weighed daily for four weeks and those showing clinical signs (neurological symptoms, ataxia, lethargy) were euthanized.

[10] = ELISA of total IgE in serum; format: in vivo, cynomolgus macaques; design: unit not given here; conditions: Peptide group
Protocol: as §1

[11] = ELISA of HRC4 concentration in serum and urine
[12] = system: MeV IC323-eGFP; test: Viremia: GFP+ PBMC by flow cytometry
Protocol: as §3

[13] = Haematological parameters after nebulization; format: in vivo, cynomolgus macaques; conditions: noninfected animals, days 1, 2, 3, 6, 28 after nebulization
Protocol: (§2) Biochemical parameters in the plasma and cellular composition of the blood were evaluated immediately before treatment and 1, 2, 3, 6, and 28 days after nebulization of either saline or HRC4 peptide in non-infected and MeV-infected NHP, to search for early and late toxic effects of the aerosol delivery (Fig. 4). […] In both control and peptide group, few animals experienced transient increase of creatine kinase above physiological values[40] (Fig. 4a), which can be linked to intramuscular anesthesia, as described previously.

[14] = Biochemical parameters in plasma after nebulization; format: in vivo, cynomolgus macaques; conditions: noninfected animals, days 1, 2, 3, 6, 28 after nebulization
Protocol: as §2

[15] = system: MeV IC323-eGFP; test: Haematological parameters during MeV infection; format: in vivo, Cynomolgus monkeys (Macaca fascicularis)
Protocol: Supplementary figure S6. Evolution of the hematological parameters during the MeV infection. Major PBMC populations in blood of cynomolgus macaques were followed using Sysmex XT2000i Vet automatic analyzer, after nebulization of either 3 ml of 0.9% NaCl (C) or […] of HRC4 peptide (P) and MeV infection. Transient lymphopenia is observed in the absence of peptide protection.
Lymphocytes concentration (K/uL)
Monocytes concentration (K/uL)

[16] = Clinical observation for adverse effects after nebulization; conditions: during the 28 days after peptide nebulization
[17] = Immunofluorescence detection of HRC4 in lungs after nebulization; format: in vivo, cynomolgus macaques; conditions: lungs sampled 15 min, 16 h and 24 h after nebulization; anti-HRC4 immunofluorescence, all three lung regions
Protocol: To evaluate immediate HRC4 biodistribution into lungs, one animal from the MeV-infection experiment (C1) was nebulized with 3 ml (4 mg/ml) immediately after euthanasia under mechanical ventilation (Dräger Primus anesthesia machine). For mid-term biodistribution, animals were nebulized 24 h (C2) or 16 h (C3) before euthanasia.
To assess the bioavailability of the HRC4 peptide on lungs, sections were stained and imaged by confocal microscopy as described previously. Briefly, after being blocked and permeabilized in 0.1% TritonX100, 5% BSA solution, slices were sequentially incubated with a rabbit anti-HRC4 (Genscript) overnight at 4 °C and with a secondary donkey anti-rabbit alexa-555 (Thermo Fisher) diluted 1/500 and DAPI (1 µg/ml) for 1 h at room temperature. Slides were imaged using a Zeiss LSM800 confocal microscope and processed by ImageJ1.52p.

SMILES: CC[C@H](C)[C@H](NC(=O)[C@H](C)NC(=O)[C@H](CC(N)=O)NC(=O)CNC(=O)[C@H](CC(C)C)NC(=O)[C@H](CC(N)=O)NC(=O)[C@@H](NC(=O)CNC(=O)[C@@H](NC(=O)[C@H](CC(=O)O)NC(=O)[C@H](CC(C)C)NC(=O)[C@H](CCCNC(=N)N)NC(=O)[C@H](CCC(=O)O)NC(=O)[C@H](CC(C)C)NC(=O)[C@H](CO)NC(=O)[C@@H](NC(=O)[C@@H]1CCCN1C(=O)[C@@H]1CCCN1)[C@@H](C)CC)C(C)C)[C@@H](C)O)C(=O)N[C@@H](C)C(=O)N[C@@H](CCCCN)C(=O)N[C@@H](CC(C)C)C(=O)N[C@@H](CCC(=O)O)C(=O)N[C@@H](CC(=O)O)C(=O)N[C@@H](C)C(=O)N[C@@H](CCCCN)C(=O)N[C@@H](CCC(=O)O)C(=O)N[C@@H](CC(C)C)C(=O)N[C@@H](CC(C)C)C(=O)N[C@@H](CCC(=O)O)C(=O)N[C@@H](CO)C(=O)N[C@@H](CO)C(=O)N[C@@H](CC(=O)O)C(=O)N[C@@H](CCC(N)=O)C(=O)N[C@H](C(=O)N[C@@H](CC(C)C)C(=O)N[C@@H](CCCNC(=N)N)C(=O)NCC(=O)N[C@@H](CO)C(=O)NCC(=O)N[C@@H](CO)C(=O)NCC(=O)N[C@@H](CSC1CC(=O)N(CCCC(=O)NCCOCCOCCOCCOCCC(=O)NCCN(CCNC(=O)CCOCCOCCOCCOCCNC(=O)CCCN2C(=O)CC(SC[C@H](NC(=O)CNC(=O)[C@H](CO)NC(=O)CNC(=O)[C@H](CO)NC(=O)CNC(=O)[C@H](CCCNC(=N)N)NC(=O)[C@H](CC(C)C)NC(=O)[C@@H](NC(=O)[C@H](CCC(N)=O)NC(=O)[C@H](CC(=O)O)NC(=O)[C@H](CO)NC(=O)[C@H](CO)NC(=O)[C@H](CCC(=O)O)NC(=O)[C@H](CC(C)C)NC(=O)[C@H](CC(C)C)NC(=O)[C@H](CCC(=O)O)NC(=O)[C@H](CCCCN)NC(=O)[C@H](C)NC(=O)[C@H](CC(=O)O)NC(=O)[C@H](CCC(=O)O)NC(=O)[C@H](CC(C)C)NC(=O)[C@H](CCCCN)NC(=O)[C@H](C)NC(=O)[C@@H](NC(=O)[C@H](C)NC(=O)[C@H](CC(N)=O)NC(=O)CNC(=O)[C@H](CC(C)C)NC(=O)[C@H](CC(N)=O)NC(=O)[C@@H](NC(=O)CNC(=O)[C@@H](NC(=O)[C@H](CC(=O)O)NC(=O)[C@H](CC(C)C)NC(=O)[C@H](CCCNC(=N)N)NC(=O)[C@H](CCC(=O)O)NC(=O)[C@H](CC(C)C)NC(=O)[C@H](CO)NC(=O)[C@@H](NC(=O)[C@@H]3CCCN3C(=O)[C@@H]3CCCN3)[C@@H](C)CC)C(C)C)[C@@H](C)O)[C@@H](C)CC)[C@@H](C)CC)C(=O)O)C2=O)CCO[C@H]2CC[C@@]3(C)C(=CC[C@H]4[C@@H]5CC[C@H]([C@H](C)CCCC(C)C)[C@@]5(C)CC[C@@H]43)C2)C1=O)C(=O)O)[C@@H](C)CC (stereo partly drawn) [HRC4]
- HRC4 specific antibodies in serum ([1]; 28 days after nebulization): not found
- anti-HRC4 antibodies (IgG, IgA and IgM), ELISA, D28 minus day 0 ([1]; animal P2): 0.2158 and 0.159 and 0.1449
- anti-HRC4 antibodies (IgG, IgA and IgM), ELISA, D28 minus day 0 ([1]; animal P3): 0.0684 and 0.0721 and 0.0837
- HRC4-specific IgE in serum [2]: did not reveal presence of any HRC4-specific IgE
- Memory B cell populations [3]: remained stable without any noticeable increase
- Loss of inhibitory activity by nebulization [4]: did not cause any loss of activity
- Lung eosinophil infiltration ([5]; HRC4-treated animals P1 and P3): no eosinophil infiltration was visible
- Lung eosinophil infiltration ([5]; animals that developed MeV infection (incl. HRC4-treated P2)): minimal although noticeable eosinophil infiltration
- Histological analysis of lungs ([5]; lungs collected from nebulized animals): did not reveal any abnormalities
- Seroconversion [6]: absence of seroconversion
- Abrogation of development of MeV infection ([7]; absence of fluorescent rash, PBMC infection, viremia, viral shedding and MeV-specific immune response): two out of three animals
- GFP-fluorescent rash ([7]; nebulized HRC4 24 h and 6 h before and 24 h after intra-tracheal 10^4 PFU MeV IC323-eGFP, 3 animals): no HRC4-treated animals
- Composition of major PBMC populations in blood [8]: did not reveal any significant changes
- Survival rate ([9]; HRC4 1 mg/kg intranasal six hours before infection with 10^4 PFU): significantly higher survival rate
- Survival rate ([9]; HRC4 1 mg/kg intranasal twenty-four hours before infection with 10^4 PFU): significantly higher survival rate
- Total IgE ([10]; animal column 1, day 0 post nebulization): 1.801
- Total IgE ([10]; animal column 1, day 3 post nebulization): 3.381
- Total IgE ([10]; animal column 1, day 6 post nebulization): 4.651
- Total IgE ([10]; animal column 1, day 13 post nebulization): 17.565
- Total IgE ([10]; animal column 1, day 28 post nebulization): 2.916
- Total IgE ([10]; animal column 2, day 0 post nebulization): 1.21
- Total IgE ([10]; animal column 2, day 3 post nebulization): 1.735
- Total IgE ([10]; animal column 2, day 6 post nebulization): 1.034
- Total IgE ([10]; animal column 2, day 13 post nebulization): 2.308
- Total IgE ([10]; animal column 2, day 28 post nebulization): 3.192
- Total IgE ([10]; animal column 3, day 0 post nebulization): 3.017
- Total IgE ([10]; animal column 3, day 3 post nebulization): 5.929
- Total IgE ([10]; animal column 3, day 6 post nebulization): 6.63
- Total IgE ([10]; animal column 3, day 13 post nebulization): 5.888
- Total IgE ([10]; animal column 3, day 28 post nebulization): 1.999
- level at time molar at 96 h ([11]; cynomolgus monkey, serum, inhaled or intranasal, 4 mg/kg, [HRC4] nM, serum of NHP, 96 hours post nebulization, single values): 0.285 nM
- HRC4 in urine ([11]; nebulized macaques): absent
- [HRC4] ([11]; serum of NHP, 0 hours post nebulization, single values): 0 nM
- [HRC4] ([11]; serum of NHP, 168 hours post nebulization, single values): 0 nM
- Duration of viremia ([12]; HRC4-treated animal P2 (co-housed with C3)): 6 days
- Infection of PBMCs by flow cytometry ([12]; HRC4-treated animal P2, day 9 p.i.): low level
- Hematological parameters [13]: within the physiological levels
- Biochemical parameters in plasma [14]: within the physiological levels
- Duration of leukopenia ([15]; HRC4-treated animal P2): 9-13 days p.i.
- Total white blood cell and lymphocyte counts ([15]; day 6 following MeV infection, HRC4-treated macaques): remained stable
- Adverse effects (pyrexia, allergic reaction) [16]: no adverse effects
- Deposition of HRC4 in lungs [17]: presence of HRC4 within the alveoli surface area
